In paper PMC6556873, “Rapid Covalent-Probe Discovery by Electrophile-Fragment Screening” (Journal of the American Chemical Society, 2019):
Like-named read-outs stand apart in the source and are kept apart here.

Key:
in vitro [1] = assay: in vitro; parameters: species or system HB2, CCD841; conditions: human, hek293 cells
in vitro [2] = assay: in vitro; parameters: species or system HB2, HEK293; conditions: human, ccd841 cells
OTUB2 (OTUB2A) = target: T1, OTUB2 (OTUB2A) (Homo sapiens, UniProt Q96DC9); parameters: Intact protein LC/MS covalent labelling, fragments in pools of five, 200 uM each, 4 °C; conditions: 24 h, 4 °C, pool of five; 200 µM; covalent
T1 construct: full length residues 1-234, E. coli BL21(DE3)-R3, His tag removed by TEV, construct 27312 Da
T1 sequence (Q96DC9 1-234): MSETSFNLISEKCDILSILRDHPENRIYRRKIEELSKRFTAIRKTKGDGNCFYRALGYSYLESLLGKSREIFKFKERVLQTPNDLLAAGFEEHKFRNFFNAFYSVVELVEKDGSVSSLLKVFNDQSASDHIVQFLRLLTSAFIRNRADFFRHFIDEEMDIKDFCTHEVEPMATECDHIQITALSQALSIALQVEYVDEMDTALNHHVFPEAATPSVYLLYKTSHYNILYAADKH

NUDT7 = target: T2, NUDT7 (Homo sapiens, UniProt P0C024); parameters: Intact protein LC/MS covalent labelling, fragments in pools of five, 200 uM each, 4 °C; conditions: 24 h, 4 °C, pool of five; 200 µM; covalent
T2 construct: residues 14-235, E. coli, pNIC28-Bsa4, N-terminal His6 tag removed by TEV, construct 26672 Da

PCAF = target: T3, PCAF (Homo sapiens, UniProt Q92831); parameters: Intact protein LC/MS covalent labelling, fragments in pools of five, 200 uM each, 4 °C; conditions: 24 h, 4 °C, pool of five; 200 µM; covalent
T3 construct: gene KAT2B

BSA = target: T4, BSA (Bos taurus, UniProt P02769); parameters: Intact protein LC/MS covalent labelling, fragments in pools of five, 200 uM each, 4 °C; conditions: 24 h, 4 °C, pool of five; 200 µM; covalent
T4 construct: gene ALB

in vitro [3] = assay: in vitro; parameters: species or system CCD841, HEK293; conditions: human, hb2 cells, read-out: HB-2 Cells Viability (%)

T4 sequence (P02769 whole entry, the tested form may be a part): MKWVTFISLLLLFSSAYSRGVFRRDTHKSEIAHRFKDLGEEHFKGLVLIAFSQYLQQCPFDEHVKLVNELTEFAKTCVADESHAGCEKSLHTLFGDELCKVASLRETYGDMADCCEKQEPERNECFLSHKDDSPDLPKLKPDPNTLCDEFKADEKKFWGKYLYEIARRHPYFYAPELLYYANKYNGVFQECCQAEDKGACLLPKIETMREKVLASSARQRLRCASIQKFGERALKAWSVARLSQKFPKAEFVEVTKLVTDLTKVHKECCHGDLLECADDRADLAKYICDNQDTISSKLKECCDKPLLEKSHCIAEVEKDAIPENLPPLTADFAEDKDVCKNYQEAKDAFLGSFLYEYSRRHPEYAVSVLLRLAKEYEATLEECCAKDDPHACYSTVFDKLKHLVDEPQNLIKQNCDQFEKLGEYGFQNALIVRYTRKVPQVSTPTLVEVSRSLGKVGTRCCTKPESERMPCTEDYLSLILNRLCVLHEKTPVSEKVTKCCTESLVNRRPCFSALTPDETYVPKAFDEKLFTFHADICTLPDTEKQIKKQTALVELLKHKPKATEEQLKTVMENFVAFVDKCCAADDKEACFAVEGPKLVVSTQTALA
T3 sequence (Q92831 whole entry, the tested form may be a part): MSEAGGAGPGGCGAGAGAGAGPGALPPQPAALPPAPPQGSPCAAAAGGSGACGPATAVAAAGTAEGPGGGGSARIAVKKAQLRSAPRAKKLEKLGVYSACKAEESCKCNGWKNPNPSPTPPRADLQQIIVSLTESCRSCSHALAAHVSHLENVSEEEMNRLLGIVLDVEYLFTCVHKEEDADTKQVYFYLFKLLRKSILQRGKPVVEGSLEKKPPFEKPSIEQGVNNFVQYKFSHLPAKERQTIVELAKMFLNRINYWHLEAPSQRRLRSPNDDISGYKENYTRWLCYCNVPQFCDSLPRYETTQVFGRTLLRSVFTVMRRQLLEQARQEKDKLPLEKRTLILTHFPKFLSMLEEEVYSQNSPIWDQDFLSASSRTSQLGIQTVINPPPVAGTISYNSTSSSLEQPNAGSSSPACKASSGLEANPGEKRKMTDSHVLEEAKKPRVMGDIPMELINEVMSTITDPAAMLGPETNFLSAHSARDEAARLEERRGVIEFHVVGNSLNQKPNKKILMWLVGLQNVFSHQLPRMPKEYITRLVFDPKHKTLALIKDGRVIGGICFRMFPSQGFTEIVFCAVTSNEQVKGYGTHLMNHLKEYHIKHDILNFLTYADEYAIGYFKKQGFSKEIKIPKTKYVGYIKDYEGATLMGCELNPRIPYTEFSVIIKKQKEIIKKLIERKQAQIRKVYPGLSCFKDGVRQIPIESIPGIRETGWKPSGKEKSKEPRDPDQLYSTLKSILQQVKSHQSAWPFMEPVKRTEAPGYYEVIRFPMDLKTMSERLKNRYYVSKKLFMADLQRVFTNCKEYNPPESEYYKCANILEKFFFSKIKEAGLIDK
T2 sequence (P0C024 14-235): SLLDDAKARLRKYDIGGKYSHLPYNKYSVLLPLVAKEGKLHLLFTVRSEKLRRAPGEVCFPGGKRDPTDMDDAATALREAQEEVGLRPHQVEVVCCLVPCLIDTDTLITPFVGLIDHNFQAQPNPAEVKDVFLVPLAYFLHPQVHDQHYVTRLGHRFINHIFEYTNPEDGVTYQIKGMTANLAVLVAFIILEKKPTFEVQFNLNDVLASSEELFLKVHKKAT

C=CC(=O)N1C(C)CNCC1C.O=C(O)C(F)(F)F (stereo not drawn) [PCM-0102447]
viability at 48 h, 10 µM (in vitro [1]): 105% | viability at 48 h, 10 µM (in vitro [2]): 109% | OTUB2 (OTUB2 (OTUB2A)): 0 | NUDT7 (NUDT7): 0 | PCAF (PCAF): 0 | BSA (BSA): 0 | viability at 48 h, 10 µM (in vitro [3]): 104%

N#CC(c1cccs1)N1CCN(C(=O)CCl)CC1 (stereo not drawn) [PCM-0102223]
viability at 48 h, 10 µM (in vitro [1]): 64.6% | viability at 48 h, 10 µM (in vitro [2]): 75.5% | OTUB2 (OTUB2 (OTUB2A)): 0 | NUDT7 (NUDT7): 0 | PCAF (PCAF): 0 | BSA (BSA): 0 | viability at 48 h, 10 µM (in vitro [3]): 74%

C=CC(=O)Nc1ccc2c(c1)NC(=O)CO2 [PCM-0102499]
viability at 48 h, 10 µM (in vitro [1]): 71.7% | viability at 48 h, 10 µM (in vitro [2]): 108% | OTUB2 (OTUB2 (OTUB2A)): 0 | NUDT7 (NUDT7): 0.1 | PCAF (PCAF): 0 | BSA (BSA): 0 | viability at 48 h, 10 µM (in vitro [3]): 104%

O=C(CCl)NCc1ccc(Cl)s1 [PCM-0103080]
viability at 48 h, 10 µM (in vitro [1]): 73% | viability at 48 h, 10 µM (in vitro [2]): 61.2% | OTUB2 (OTUB2 (OTUB2A)): 0.79 | NUDT7 (NUDT7): 0 | PCAF (PCAF): 0 | BSA (BSA): 0 | viability at 48 h, 10 µM (in vitro [3]): 79.6%

O=C(CCl)Nc1ccc(O)cc1 [PCM-0102163]
viability at 48 h, 10 µM (in vitro [1]): 38.2% | viability at 48 h, 10 µM (in vitro [2]): 60.5% | OTUB2 (OTUB2 (OTUB2A)): 0.16 | NUDT7 (NUDT7): 0 | PCAF (PCAF): 0 | BSA (BSA): 0 | viability at 48 h, 10 µM (in vitro [3]): 67.8%

O=C(CCl)Nc1ccc(Br)cc1F [PCM-0102926]
viability at 48 h, 10 µM (in vitro [1]): 32.5% | viability at 48 h, 10 µM (in vitro [2]): 59.9% | OTUB2 (OTUB2 (OTUB2A)): 0.2 | NUDT7 (NUDT7): 0.17 | PCAF (PCAF): 0 | BSA (BSA): 0 | viability at 48 h, 10 µM (in vitro [3]): 50.9%

CC(C)(O)CNC(=O)CCl [PCM-0102554]
viability at 48 h, 10 µM (in vitro [1]): 93.2% | viability at 48 h, 10 µM (in vitro [2]): 99.5% | OTUB2 (OTUB2 (OTUB2A)): 0 | NUDT7 (NUDT7): 0 | PCAF (PCAF): 0 | BSA (BSA): 0 | viability at 48 h, 10 µM (in vitro [3]): 103%

O=C(CCl)N1N=C(c2cccs2)CC1c1ccco1 (stereo not drawn) [PCM-0102295]
viability at 48 h, 10 µM (in vitro [1]): 1.4% | viability at 48 h, 10 µM (in vitro [2]): 7.9% | OTUB2 (OTUB2 (OTUB2A)): 0.06 | NUDT7 (NUDT7): 0.46 | PCAF (PCAF): 0 | BSA (BSA): 0 | viability at 48 h, 10 µM (in vitro [3]): 5%

CN(CC12CC3CC(CC(C3)C1)C2)C(=O)CCl [PCM-0102942]
viability at 48 h, 10 µM (in vitro [1]): 2.4% | viability at 48 h, 10 µM (in vitro [2]): 6.7% | OTUB2 (OTUB2 (OTUB2A)): 0.1 | NUDT7 (NUDT7): 0.26 | PCAF (PCAF): 0 | BSA (BSA): 0 | viability at 48 h, 10 µM (in vitro [3]): 7.8%

Cc1c(C#N)c(NC(=O)CCl)n(C2CCCC2)c1C [PCM-0102183]
viability at 48 h, 10 µM (in vitro [1]): 9.1% | viability at 48 h, 10 µM (in vitro [2]): 56.1% | OTUB2 (OTUB2 (OTUB2A)): 0 | NUDT7 (NUDT7): 0.28 | PCAF (PCAF): 0 | BSA (BSA): 0 | viability at 48 h, 10 µM (in vitro [3]): 23.9%

CC(NC(=O)CCl)c1ccccc1Br (stereo not drawn) [PCM-0102256]
viability at 48 h, 10 µM (in vitro [1]): 27.3% | viability at 48 h, 10 µM (in vitro [2]): 67.3% | OTUB2 (OTUB2 (OTUB2A)): 0.29 | NUDT7 (NUDT7): 0.19 | PCAF (PCAF): 0 | BSA (BSA): 0 | viability at 48 h, 10 µM (in vitro [3]): 39%

CCc1nc(NC(=O)CCl)sc1C [PCM-0102231]
viability at 48 h, 10 µM (in vitro [1]): 56.5% | viability at 48 h, 10 µM (in vitro [2]): 78.9% | OTUB2 (OTUB2 (OTUB2A)): 0 | NUDT7 (NUDT7): 0.33 | PCAF (PCAF): 0 | BSA (BSA): 0 | viability at 48 h, 10 µM (in vitro [3]): 61.1%

Cc1ccc(-n2nc(C)cc2NC(=O)CCl)cc1 [PCM-0102224]
viability at 48 h, 10 µM (in vitro [1]): 24.9% | viability at 48 h, 10 µM (in vitro [2]): 67.5% | OTUB2 (OTUB2 (OTUB2A)): 0.35 | NUDT7 (NUDT7): 0 | PCAF (PCAF): 0 | BSA (BSA): 0 | viability at 48 h, 10 µM (in vitro [3]): 49.3%

O=C(CCl)NC1CCN(C(=O)c2ccco2)CC1 [PCM-0102619]
viability at 48 h, 10 µM (in vitro [1]): 84.6% | viability at 48 h, 10 µM (in vitro [2]): 101% | OTUB2 (OTUB2 (OTUB2A)): 0.1 | NUDT7 (NUDT7): 0 | PCAF (PCAF): 0 | BSA (BSA): 0 | viability at 48 h, 10 µM (in vitro [3]): 105%

CCN1CCC(NC(=O)CCl)CC1.Cl [PCM-0102103]
viability at 48 h, 10 µM (in vitro [1]): 66.8% | viability at 48 h, 10 µM (in vitro [2]): 84.1% | OTUB2 (OTUB2 (OTUB2A)): 0 | NUDT7 (NUDT7): 0 | PCAF (PCAF): 0 | BSA (BSA): 0 | viability at 48 h, 10 µM (in vitro [3]): 96%

Cc1ccc(NC(=O)CCl)c(Br)c1 [PCM-0102196]
viability at 48 h, 10 µM (in vitro [1]): 45.5% | viability at 48 h, 10 µM (in vitro [2]): 87.6% | OTUB2 (OTUB2 (OTUB2A)): 0.14 | NUDT7 (NUDT7): 0.2 | PCAF (PCAF): 0 | BSA (BSA): 0 | viability at 48 h, 10 µM (in vitro [3]): 49.2%

C=CC(=O)N1CCC(S(=O)(=O)C(C)C)CC1 [PCM-0102637]
viability at 48 h, 10 µM (in vitro [1]): 102% | viability at 48 h, 10 µM (in vitro [2]): 119% | OTUB2 (OTUB2 (OTUB2A)): 0 | NUDT7 (NUDT7): 0 | PCAF (PCAF): 0 | BSA (BSA): 0 | viability at 48 h, 10 µM (in vitro [3]): 98.6%

O=C(CCl)N1CCc2ccccc21 [PCM-0102160]
viability at 48 h, 10 µM (in vitro [1]): 16.3% | viability at 48 h, 10 µM (in vitro [2]): 44.6% | OTUB2 (OTUB2 (OTUB2A)): 0 | NUDT7 (NUDT7): 0 | PCAF (PCAF): 0 | BSA (BSA): 0 | viability at 48 h, 10 µM (in vitro [3]): 6.1%

COc1cccc(NC(=O)CCl)c1 [PCM-0102410]
viability at 48 h, 10 µM (in vitro [1]): 7.5% | viability at 48 h, 10 µM (in vitro [2]): 63.5% | OTUB2 (OTUB2 (OTUB2A)): 0 | NUDT7 (NUDT7): 0 | PCAF (PCAF): 0 | BSA (BSA): 0.21 | viability at 48 h, 10 µM (in vitro [3]): 34.1%

CNC(=O)C1CCN(C(=O)CCl)CC1 [PCM-0102815]
viability at 48 h, 10 µM (in vitro [1]): 77.1% | viability at 48 h, 10 µM (in vitro [2]): 95.1% | OTUB2 (OTUB2 (OTUB2A)): 0.08 | NUDT7 (NUDT7): 0 | PCAF (PCAF): 0 | BSA (BSA): 0 | viability at 48 h, 10 µM (in vitro [3]): 92.2%

C=CC(=O)NC(C#N)C(C)C (stereo not drawn) [PCM-0102529]
viability at 48 h, 10 µM (in vitro [1]): 89.7% | viability at 48 h, 10 µM (in vitro [2]): 98.9% | OTUB2 (OTUB2 (OTUB2A)): 0 | NUDT7 (NUDT7): 0 | PCAF (PCAF): 0 | BSA (BSA): 0 | viability at 48 h, 10 µM (in vitro [3]): 102%

O=C(CCl)N1CCCC(c2nc3ccccc3s2)C1 (stereo not drawn) [PCM-0102425]
viability at 48 h, 10 µM (in vitro [1]): 9.4% | viability at 48 h, 10 µM (in vitro [2]): 3.5% | OTUB2 (OTUB2 (OTUB2A)): 0 | NUDT7 (NUDT7): 0.28 | PCAF (PCAF): 0 | BSA (BSA): 0 | viability at 48 h, 10 µM (in vitro [3]): 4.1%

COc1cc(Cl)c(C)cc1NC(=O)CCl [PCM-0102210]
viability at 48 h, 10 µM (in vitro [1]): 5.5% | viability at 48 h, 10 µM (in vitro [2]): 64.1% | OTUB2 (OTUB2 (OTUB2A)): 0.25 | NUDT7 (NUDT7): 0 | PCAF (PCAF): 0 | BSA (BSA): 0 | viability at 48 h, 10 µM (in vitro [3]): 8.5%

CC(=O)c1sc(NC(=O)CCl)nc1C [PCM-0102838]
viability at 48 h, 10 µM (in vitro [1]): 87.2% | viability at 48 h, 10 µM (in vitro [2]): 92.1% | OTUB2 (OTUB2 (OTUB2A)): 0 | NUDT7 (NUDT7): 0.12 | PCAF (PCAF): 0 | BSA (BSA): 0 | viability at 48 h, 10 µM (in vitro [3]): 96%
